We go through nine molecules from patent publication US9168311B2, “Oligomer-dantrolene conjugates and related compounds” (Nektar Therapeutics, priority 2007, dated 2015).

Where a name gives a salt, the structure may show the parent alone.

Data set [1] addresses T1, cardiac L-type calcium channel (Homo sapiens, UniProt Q13936).
T1 construct: Human myocytes were obtained from specimens of human right atrial appendage obtained during surgery; endogenous in cells; host or cells: primary human atrial myocytes isolated from right atrial appendage
As to the kind of experiment: Calcium current (ICa) block, whole-cell patch clamp in isolated human atrial myocytes. The format is cell-based. The conditions noted are these: for Fold Difference (Parent vs. Derivative): ratio of IC50 at 0.1 Hz, derivative vs. dantrolene; for IC50: read-out: IC50 at 0.1 Hz. As to the method: Human myocytes were obtained from specimens of human right atrial appendage obtained during surgery from hearts of patients undergoing cardiopulmonary bypass. The isolation procedure produced rod-shaped, calcium tolerant cells which were used within 24 hours after isolation (Crumb et al., (1995) Am J Physiol 268:H1335-H1342).
The whole-cell patch clamp technique was carried out at 23±1° C. with precise micromanipulation under high power visual magnification to measure calcium currents. Glass pipettes were fire polished to produce tip diameters of 1-4 μm. The tip of the pipette, filled with electrolyte “internal” solution (a composition of (mM): 120 CsCl, 20 TEACl, 5 NaCl, 1 CaCl2, 10 EGTA, 10 HEPES, 5 MgATP, 0.2 Na2GTP, adjusted to pH 7.2 with CsOH) was positioned onto a cell. The cell was in a bathing “external” solution (consisting of (mM): 1.8 CaCl2, 137 NaCl, 20 CsCl, 4 KCl, 1 MgCl2, 10 HEPES, 10 dextrose, pH=7.4 with NaOH). Pipette tip resistance was approximately 1.0 to 2.0 MΩ when filled with the internal solution. Suction was then applied to the pipette interior to seal the cell membrane onto the tip. Another suction pulse then broke the membrane, establishing electrical access into the interior of the cell. The cellular interior then became dialysed by the solution the patch pipette was filled with.
After rupture of the cell membrane (entering whole-cell mode), current kinetics and amplitudes were allowed to stabilize (currents elicited by a series of voltage pulses given at 0.1 Hz were superimposed) as the cell was dialyzed with internal solution and paced at 1 Hz (3-5 minutes). Calcium current (ICa) was measured using a voltage pulse to 0 mV (200 ms duration) from a holding potential of −60 mV. Only a pacing rate of 0.1 Hz was used. Test article, at concentrations of 0.1, 1, 3, 10, 30, and […] was added in a cumulative manner to a cell.
Currents and voltages were recorded with patch-clamp amplifiers (Axopatch 1-B, Axon Instruments, Foster City, Calif.). Creation of voltage clamp pulses and data acquisition was controlled by a computer using electrophysiology software (pCLAMP version 9.2, Axon Instruments, Foster City, Calif.). […] Each cell served as its own control.
All stock solutions (10 mM) were made by adding DMSO directly into the bottle containing the test article.
Approximate IC50 values (Table 1) were obtained from non-linear regression analysis of dose-response curves (FIG. 1) using GraphPad's Prism 5.01 software. Data was also analyzed for mean percent inhibition±SEM at the highest concentration tested, 100 μM (FIG. 2).
To test for cell sensitivity, 0.1 μM nisoldipine was added after exposure to test article.
(In general: Patch clamp records ionic current or voltage across a cell membrane.)

A short description of data set [2]: pKa and LogP determination with a Sirius GLPKa instrument. The format is physicochemical.

T1 sequence (Q13936 whole entry): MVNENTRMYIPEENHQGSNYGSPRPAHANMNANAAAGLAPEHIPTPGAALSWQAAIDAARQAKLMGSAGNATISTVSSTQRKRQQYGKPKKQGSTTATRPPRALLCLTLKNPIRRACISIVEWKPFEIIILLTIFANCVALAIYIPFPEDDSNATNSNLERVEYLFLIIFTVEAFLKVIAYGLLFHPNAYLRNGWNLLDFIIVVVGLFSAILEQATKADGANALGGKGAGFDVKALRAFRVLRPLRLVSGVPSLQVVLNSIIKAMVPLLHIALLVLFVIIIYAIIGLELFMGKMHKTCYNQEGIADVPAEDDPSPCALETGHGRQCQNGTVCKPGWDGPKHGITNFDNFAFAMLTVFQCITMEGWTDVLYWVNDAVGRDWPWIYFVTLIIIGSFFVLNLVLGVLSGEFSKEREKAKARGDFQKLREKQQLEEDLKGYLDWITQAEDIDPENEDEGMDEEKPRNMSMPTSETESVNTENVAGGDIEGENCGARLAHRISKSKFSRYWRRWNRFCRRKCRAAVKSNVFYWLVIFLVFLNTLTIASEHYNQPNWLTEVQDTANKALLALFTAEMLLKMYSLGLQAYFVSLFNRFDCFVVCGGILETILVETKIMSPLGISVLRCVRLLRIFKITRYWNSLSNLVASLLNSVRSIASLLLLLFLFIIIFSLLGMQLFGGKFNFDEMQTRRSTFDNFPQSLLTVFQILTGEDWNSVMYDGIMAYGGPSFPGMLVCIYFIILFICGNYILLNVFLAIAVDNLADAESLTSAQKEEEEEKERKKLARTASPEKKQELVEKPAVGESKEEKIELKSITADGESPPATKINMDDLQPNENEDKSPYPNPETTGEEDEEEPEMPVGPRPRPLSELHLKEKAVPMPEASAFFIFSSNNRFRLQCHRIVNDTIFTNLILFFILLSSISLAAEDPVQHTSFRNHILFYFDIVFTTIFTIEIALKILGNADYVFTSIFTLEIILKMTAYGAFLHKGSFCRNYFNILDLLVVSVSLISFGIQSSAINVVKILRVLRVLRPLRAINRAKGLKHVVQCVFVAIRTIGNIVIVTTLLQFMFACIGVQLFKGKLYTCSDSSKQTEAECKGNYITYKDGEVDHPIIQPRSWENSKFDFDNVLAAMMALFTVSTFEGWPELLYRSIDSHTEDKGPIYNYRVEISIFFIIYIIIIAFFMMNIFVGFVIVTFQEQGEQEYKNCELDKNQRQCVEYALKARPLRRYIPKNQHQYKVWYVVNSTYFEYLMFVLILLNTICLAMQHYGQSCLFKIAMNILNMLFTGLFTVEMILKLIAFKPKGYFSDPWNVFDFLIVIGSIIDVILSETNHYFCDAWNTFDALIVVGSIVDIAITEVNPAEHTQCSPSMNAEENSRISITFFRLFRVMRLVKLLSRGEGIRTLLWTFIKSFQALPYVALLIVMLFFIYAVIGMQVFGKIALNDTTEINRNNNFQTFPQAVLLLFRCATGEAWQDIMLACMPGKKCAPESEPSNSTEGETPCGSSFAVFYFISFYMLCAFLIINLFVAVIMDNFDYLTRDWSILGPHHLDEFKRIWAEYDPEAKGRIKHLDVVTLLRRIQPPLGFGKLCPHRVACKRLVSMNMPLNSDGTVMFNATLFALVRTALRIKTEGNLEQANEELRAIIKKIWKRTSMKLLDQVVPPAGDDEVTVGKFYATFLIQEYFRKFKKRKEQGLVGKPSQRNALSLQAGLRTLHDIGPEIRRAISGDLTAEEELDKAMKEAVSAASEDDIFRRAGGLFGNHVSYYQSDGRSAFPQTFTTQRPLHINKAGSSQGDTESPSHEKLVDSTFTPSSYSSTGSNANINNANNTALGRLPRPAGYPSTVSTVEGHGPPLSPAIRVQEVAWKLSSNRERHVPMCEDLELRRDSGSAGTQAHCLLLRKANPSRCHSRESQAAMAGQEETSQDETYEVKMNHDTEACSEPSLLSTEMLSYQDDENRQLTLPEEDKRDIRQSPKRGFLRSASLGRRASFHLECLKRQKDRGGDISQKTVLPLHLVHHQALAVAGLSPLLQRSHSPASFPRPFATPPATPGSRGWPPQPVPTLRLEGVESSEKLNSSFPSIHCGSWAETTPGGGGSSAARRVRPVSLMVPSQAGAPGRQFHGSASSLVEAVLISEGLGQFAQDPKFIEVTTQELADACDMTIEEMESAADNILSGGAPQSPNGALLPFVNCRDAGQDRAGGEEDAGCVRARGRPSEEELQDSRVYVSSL
T1 sequence (Q08289 whole entry partner): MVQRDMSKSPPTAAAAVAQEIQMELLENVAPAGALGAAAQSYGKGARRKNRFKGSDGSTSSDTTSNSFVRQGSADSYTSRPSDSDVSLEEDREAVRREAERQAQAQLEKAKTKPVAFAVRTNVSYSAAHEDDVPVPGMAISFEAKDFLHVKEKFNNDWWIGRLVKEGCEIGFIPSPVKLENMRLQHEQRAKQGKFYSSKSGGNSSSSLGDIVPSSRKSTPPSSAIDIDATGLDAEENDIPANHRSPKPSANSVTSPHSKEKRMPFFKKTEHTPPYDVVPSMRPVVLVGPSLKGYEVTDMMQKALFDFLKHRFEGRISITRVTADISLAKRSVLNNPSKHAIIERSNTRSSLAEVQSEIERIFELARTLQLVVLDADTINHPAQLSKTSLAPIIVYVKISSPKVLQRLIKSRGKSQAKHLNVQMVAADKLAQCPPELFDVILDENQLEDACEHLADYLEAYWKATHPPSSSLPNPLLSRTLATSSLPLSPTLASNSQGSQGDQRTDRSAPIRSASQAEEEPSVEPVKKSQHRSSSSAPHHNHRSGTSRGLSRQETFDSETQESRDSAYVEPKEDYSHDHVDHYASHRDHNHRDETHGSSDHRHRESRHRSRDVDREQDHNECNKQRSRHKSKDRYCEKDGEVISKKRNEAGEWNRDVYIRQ
T1 sequence (P54289 25-956 partner limits assumed): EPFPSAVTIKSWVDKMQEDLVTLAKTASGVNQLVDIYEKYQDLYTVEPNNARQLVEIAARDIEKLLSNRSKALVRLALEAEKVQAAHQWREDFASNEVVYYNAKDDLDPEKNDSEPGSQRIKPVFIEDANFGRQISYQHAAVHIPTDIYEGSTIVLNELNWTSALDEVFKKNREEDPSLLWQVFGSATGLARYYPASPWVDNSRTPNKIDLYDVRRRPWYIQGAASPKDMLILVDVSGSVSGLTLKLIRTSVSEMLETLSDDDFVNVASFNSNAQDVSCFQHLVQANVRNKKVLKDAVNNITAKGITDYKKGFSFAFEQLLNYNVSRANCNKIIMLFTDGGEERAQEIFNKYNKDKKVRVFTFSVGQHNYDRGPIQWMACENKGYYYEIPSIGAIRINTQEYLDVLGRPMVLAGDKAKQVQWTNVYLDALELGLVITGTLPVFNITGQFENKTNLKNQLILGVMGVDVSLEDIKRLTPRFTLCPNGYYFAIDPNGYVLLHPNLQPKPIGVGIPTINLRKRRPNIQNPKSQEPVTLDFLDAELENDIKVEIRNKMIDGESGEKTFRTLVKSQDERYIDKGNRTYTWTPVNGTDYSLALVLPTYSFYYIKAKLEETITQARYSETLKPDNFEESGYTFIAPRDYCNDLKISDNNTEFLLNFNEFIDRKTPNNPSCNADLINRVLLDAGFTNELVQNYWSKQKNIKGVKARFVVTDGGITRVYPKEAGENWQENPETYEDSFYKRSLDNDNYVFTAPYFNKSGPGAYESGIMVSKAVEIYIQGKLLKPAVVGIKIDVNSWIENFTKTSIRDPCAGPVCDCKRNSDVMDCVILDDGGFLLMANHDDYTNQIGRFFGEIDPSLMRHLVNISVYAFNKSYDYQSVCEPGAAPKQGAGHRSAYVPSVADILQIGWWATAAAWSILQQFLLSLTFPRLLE
T1 sequence (P54289 957-1103 partner limits assumed): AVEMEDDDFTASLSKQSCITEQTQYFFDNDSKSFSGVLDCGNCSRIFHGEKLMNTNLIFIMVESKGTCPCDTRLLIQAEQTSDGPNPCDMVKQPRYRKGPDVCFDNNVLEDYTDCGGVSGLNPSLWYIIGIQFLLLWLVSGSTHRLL

Usually IC50 stands for the concentration that gives 50% inhibition. As to `COCCOCCOCCOCCOCCN1C(=O)CN(N=Cc2ccc(-c3ccc([N+](=O)[O-])cc3)o2)C1=O` [mPEG5-N-Dantrolene, mPEG5-N-dantrolene], in data set [1], the “Fold Difference (Parent vs. Derivative)” value was 260 and the concentration for half-maximal inhibition (IC50) was determined as 27 mM.
One may read the logP as a log measure of how a compound divides between an organic and an aqueous phase. A lower logP goes with lower lipophilicity. A word on the pKa: it is the pH at which an ionisable group is half protonated. Higher therefore signals a group that holds its proton tightly. As for `COCCOCCOCCOc1cc([N+](=O)[O-])ccc1-c1ccc(C=NN2CC(=O)NC2=O)o1` [mPEG3-O-Dantrolene, mPEG3-O-dantrolene], the “Fold Difference (Parent vs. Derivative)” value in data set [1] worked out at 1144. In data set [2], this molecule gave a lipophilicity (logP) of -0.6 and a pKa of 8.69.
`COCCOCCOCCOCCOCCOCCOCCOc1cc([N+](=O)[O-])ccc1-c1ccc(C=NN2CC(=O)NC2=O)o1` [mPEG7-O-Dantrolene, mPEG7-O-dantrolene]: in data set [1], the “Fold Difference (Parent vs. Derivative)” value came out at 444 and the IC50 was 46.2 mM. For the same molecule, in data set [2], the logP worked out at 0.62 and the pKa came out at 7.32.
The molecule `O=C1CN(/N=C/c2ccc(-c3ccc([N+](=O)[O-])cc3)o2)C(O)=N1` [Dantrolene sodium salt, reference compound] registered a pKa in data set [2] of 7.11.
Consider `COCCOCCOCCN1C(=O)CN(N=Cc2ccc(-c3ccc([N+](=O)[O-])cc3)o2)C1=O` [mPEG3-N-Dantrolene, mPEG3-N-dantrolene], for which the “Fold Difference (Parent vs. Derivative)” value in data set [1] is listed as 1067.
Take `O=C1CN(/N=C/c2ccc(-c3ccc([N+](=O)[O-])cc3)o2)C(O)=N1` [Dantrolene]: the “block of Ica amplitude” value in data set [1] (at 100 μM, 0.1 Hz, isolated human atrial myocytes) is given as 21.1%. The IC50 in data set [1] amounted to 0.104 mM.
As to `COCCOCCOCCOCCOCCOCCOCCN1C(=O)CN(N=Cc2ccc(-c3ccc([N+](=O)[O-])cc3)o2)C1=O` [mPEG7-N-Dantrolene, mPEG7-N-dantrolene], in data set [1], the “Fold Difference (Parent vs. Derivative)” value was found to be 2 and the 50% inhibitory concentration (IC50) turned out to be 0.193 mM.
As to `COC(=O)C1=C(C)NC(C)=C(C(=O)OCC(C)C)C1c1ccccc1[N+](=O)[O-]` (centres unmarked) [nisoldipine, reference compound], the “reduction Ica” value in data set [1] (0.1 μM nisoldipine added after exposure to test article, 2 cells, cell sensitivity test) was 100%.
For `COCCOCCOCCOCCOCCOc1cc([N+](=O)[O-])ccc1-c1ccc(C=NN2CC(=O)NC2=O)o1` [mPEG5-O-Dantrolene, mPEG5-O-dantrolene], in data set [1], the “Fold Difference (Parent vs. Derivative)” value was found to be 522 and the IC50 stood at 54.3 mM. In data set [2], the lipophilicity (logP) stood at 0.74 and the pKa turned out to be 7.49.
